Molecular target: HLA-A02:01 (MHC-I) on the surface of TAP-deficient T2 cells (Homo sapiens, UniProt P04439, D140Y/D185E/D98H/E176V/E277Q/G131W/G231S/I119V/I121R/I166T/I218V/L300P/L318F/N151K/N90K/P208A/P217A/Q86G/Q94H/R138H/R169H/T345S)
Test: Peptide binding assay using TAP deficient T2 cells
Type: cell-based
Conditions: PAX7-encoded 9-mer; statement of the discussion

affinity for HLA-A02:01 (in words): very high affinity
Sequence: GLVSSISRV

From PMC6140548 (Oncoimmunology, 2018)
